The test system of this experiment is L1210 leukemia ip in BDF1 mice, survival T/C. Kind of experiment: NCI In Vivo Anticancer Drug Screen. Data for tumor model L1210 Leukemia (intraperitoneal) in B6D2F1 (BDF1) mice. The settings on record: endpoint: mean survival time, higher = longer survival. The procedure, abridged:
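Tumor was transplanted into mice, which were then dosed with test compound or vehicle alone. Survival was recorded for each group, and the treated figure was expressed relative to the control figure.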

[1] abbreviates: dose: 150.0 mg/kg/injection, schedule: Q01DX001 (ip), vehicle: saline.
Setting [2] is: dose: 100.0 mg/kg/injection, schedule: Q01DX009 (ip), vehicle: Klucel (hydroxypropylcellulose) (HPC).
Where [3] appears, read: dose: 200.0 mg/kg/injection, schedule: Q01DX009 (ip), vehicle: Klucel (hydroxypropylcellulose) (HPC).
Setting [4] is: dose: 100.0 mg/kg/injection, schedule: Q01DX009 (ip), vehicle: saline with Tween-80.
Setting [5] is: dose: 50.0 mg/kg/injection, schedule: Q04DX003 (ip), vehicle: saline.

Several values for one entry are separate records, joined by “and”; a condition that tells them apart may be missing. Identical values can stand only once. Inconclusive results and toxic doses are left out.

Take `O=[N+]([O-])c1ccc(N2N=NC(c3ccccc3)C2(c2ccccc2)N2CCOCC2)cc1` (stereo not given): the T/C under setting [1] was 89 % of control.

In the case of `Cc1ccccc1SC(=O)Nc1cccc(Cl)c1Cl`, the T/C was 112 % of control (dose: 25.0 mg/kg/injection, schedule: Q01DX009 (ip), vehicle: Klucel (hydroxypropylcellulose) (HPC)); 104 % of control (dose: 50.0 mg/kg/injection, schedule: Q01DX009 (ip), vehicle: Klucel (hydroxypropylcellulose) (HPC)); 94 % of control and 103 % of control under setting [2]; 87 % of control under setting [3].

Turning to `CCCCCCC(C)O[Si](C)c1ccccc1C` (stereo not given), the T/C is 98 % of control under setting [4]; 98 % of control (dose: 100.0 mg/kg/injection, schedule: Q04DX003 (ip), vehicle: saline with Tween-80); 100 % of control (dose: 200.0 mg/kg/injection, schedule: Q01DX009 (ip), vehicle: saline with Tween-80); 98 % of control (dose: 200.0 mg/kg/injection, schedule: Q04DX003 (ip), vehicle: saline with Tween-80); 111 % of control (dose: 400.0 mg/kg/injection, schedule: Q01DX009 (ip), vehicle: saline with Tween-80); 98 % of control (dose: 400.0 mg/kg/injection, schedule: Q04DX003 (ip), vehicle: saline with Tween-80).

As to `CCN(CC)CCOC(=O)c1[nH]cnc1/N=N/N(C)C1CCCCC1`, the T/C by setting is: (dose: 100.0 mg/kg/injection, schedule: Q01DX001 (ip), vehicle: other) 104 % of control; (dose: 200.0 mg/kg/injection, schedule: Q01DX001 (ip), vehicle: other) 93 % of control.

As to `CCn1c2ccccc2c2ccc(C(C)=O)cc21`, the T/C (dose: 75.0 mg/kg/injection, schedule: Q01DX001 (ip), vehicle: carboxymethylcellulose (CMC)) is 95 % of control; the T/C (dose: 150.0 mg/kg/injection, schedule: Q01DX001 (ip), vehicle: carboxymethylcellulose (CMC)) is 95 % of control; the T/C (dose: 300.0 mg/kg/injection, schedule: Q01DX001 (ip), vehicle: carboxymethylcellulose (CMC)) is 97 % of control.

As to `Cc1cc(N(CCCl)CCCl)ccc1C=Nc1ccc2c(c1)nc(C)n2C`, the T/C (dose: 100.0 mg/kg/injection, schedule: Q04DX002 (ip), vehicle: Klucel (hydroxypropylcellulose) (HPC)) is 93 % of control; the T/C (dose: 200.0 mg/kg/injection, schedule: Q04DX002 (ip), vehicle: Klucel (hydroxypropylcellulose) (HPC)) is 112 % of control; the T/C (dose: 400.0 mg/kg/injection, schedule: Q04DX002 (ip), vehicle: Klucel (hydroxypropylcellulose) (HPC)) is 97 % of control.

In the case of `Nc1nc(N)c2c(Cl)c(CNc3ccc(Cl)c(Cl)c3)ccc2n1`, the T/C (dose: 6.25 mg/kg/injection, schedule: Q01DX009 (ip), vehicle: water) was 124 % of control; the T/C (dose: 12.5 mg/kg/injection, schedule: Q01DX009 (ip), vehicle: saline with Tween-80) is 158 % of control; the T/C (dose: 50.0 mg/kg/injection, schedule: Q01DX009 (ip), vehicle: saline with Tween-80) is 119 % of control; the T/C (dose: 50.0 mg/kg/injection, schedule: Q01DX009 (ip), vehicle: water) was 93 % of control and 110 % of control; the T/C (dose: 50.0 mg/kg/injection, schedule: Q04DX003 (ip), vehicle: water) was 107 % of control; the T/C under setting [4] was 91 % of control. Also, the T/C was 86 % of control (dose: 100.0 mg/kg/injection, schedule: Q01DX009 (ip), vehicle: water); 124 % of control (dose: 100.0 mg/kg/injection, schedule: Q04DX003 (ip), vehicle: water); 113 % of control (dose: 400.0 mg/kg/injection, schedule: Q04DX003 (ip), vehicle: water); 97 % of control (dose: 600.0 mg/kg/injection, schedule: Q04DX003 (ip), vehicle: water).

Regarding `CC(=O)OCC1CCC(NC(=O)N(CCCl)N=O)CC1` (stereo not given), the T/C is, setting by setting: (dose: 3.0 mg/kg/injection, schedule: Q01DX001 (ip), vehicle: Klucel (hydroxypropylcellulose) (HPC)) 104 % of control; (dose: 5.0 mg/kg/injection, schedule: Q01DX001 (ip), vehicle: Klucel (hydroxypropylcellulose) (HPC)) 114 % of control; (dose: 8.0 mg/kg/injection, schedule: Q01DX001 (ip), vehicle: Klucel (hydroxypropylcellulose) (HPC)) 167 % of control; (dose: 12.0 mg/kg/injection, schedule: Q01DX001 (ip), vehicle: Klucel (hydroxypropylcellulose) (HPC)) 221 % of control; (dose: 18.0 mg/kg/injection, schedule: Q01DX001 (ip), vehicle: Klucel (hydroxypropylcellulose) (HPC)) 270 % of control and 316 % of control; (dose: 26.0 mg/kg/injection, schedule: Q01DX001 (ip), vehicle: Klucel (hydroxypropylcellulose) (HPC)) 316 % of control. Besides, under “dose: 40.0 mg/kg/injection, schedule: Q01DX001 (ip), vehicle: Klucel (hydroxypropylcellulose) (HPC)”, the T/C is 208 % of control.

For `CCCCCCCCCC(O)CCC` (stereo not given), the T/C was 103 % of control under setting [2]; 96 % of control (dose: 100.0 mg/kg/injection, schedule: Q04DX003 (ip), vehicle: Klucel (hydroxypropylcellulose) (HPC)); 109 % of control under setting [3]; 91 % of control (dose: 200.0 mg/kg/injection, schedule: Q04DX003 (ip), vehicle: Klucel (hydroxypropylcellulose) (HPC)); 103 % of control (dose: 400.0 mg/kg/injection, schedule: Q01DX009 (ip), vehicle: Klucel (hydroxypropylcellulose) (HPC)); 89 % of control (dose: 400.0 mg/kg/injection, schedule: Q04DX003 (ip), vehicle: Klucel (hydroxypropylcellulose) (HPC)).

With `CNC1=C(N2CC2C)C(=O)C(NC)=C(N2CC2C)C1=O` (stereo not given), the T/C is, setting by setting: (dose: 0.31 mg/kg/injection, schedule: Q01DX009 (ip), vehicle: saline) 104 % of control and 108 % of control; (dose: 0.62 mg/kg/injection, schedule: Q01DX009 (ip), vehicle: saline) 104 % of control; (dose: 1.25 mg/kg/injection, schedule: Q01DX009 (ip), vehicle: saline) 114 % of control and 116 % of control; (dose: 1.56 mg/kg/injection, schedule: Q04DX003 (ip), vehicle: saline) 101 % of control; (dose: 2.5 mg/kg/injection, schedule: Q01DX009 (ip), vehicle: saline) 116 % of control; (dose: 3.12 mg/kg/injection, schedule: Q04DX003 (ip), vehicle: saline) 98 % of control and 111 % of control and 115 % of control. For the same compound, the T/C is 169 % of control (dose: 5.0 mg/kg/injection, schedule: Q01DX009 (ip), vehicle: saline); 109 % of control and 123 % of control (dose: 6.25 mg/kg/injection, schedule: Q04DX003 (ip), vehicle: saline); 96 % of control (dose: 10.0 mg/kg/injection, schedule: Q01DX001 (ip), vehicle: saline); 94 % of control and 119 % of control (dose: 10.0 mg/kg/injection, schedule: Q01DX009 (ip), vehicle: saline); 152 % of control (dose: 12.0 mg/kg/injection, schedule: Q04DX003 (ip), vehicle: saline); 152 % of control and 193 % of control (dose: 12.5 mg/kg/injection, schedule: Q04DX003 (ip), vehicle: saline). Also, the T/C reads like this: (dose: 25.0 mg/kg/injection, schedule: Q04DX003 (ip), vehicle: saline) 96 % of control and 118 % of control; under setting [5], 98 % of control and 89 % of control.

For `Cc1cc(=O)[nH]c(NCCCCC(N)C(=O)O)n1` (stereo not given), the T/C runs as follows: under setting [5], 103 % of control; (dose: 100.0 mg/kg/injection, schedule: Q04DX003 (ip), vehicle: saline) 100 % of control; (dose: 200.0 mg/kg/injection, schedule: Q04DX003 (ip), vehicle: saline) 101 % of control.

With `C=CCNc1ncnc2c1ncn2C1OC(CO)C(O)C1O` (stereo not given), the T/C (dose: 9.5 mg/kg/injection, schedule: Q01DX001 (ip), vehicle: other) was 100 % of control; the T/C (dose: 19.0 mg/kg/injection, schedule: Q01DX001 (ip), vehicle: other) was 97 % of control; the T/C (dose: 33.0 mg/kg/injection, schedule: Q01DX009 (ip), vehicle: other) is 104 % of control; the T/C (dose: 38.0 mg/kg/injection, schedule: Q01DX001 (ip), vehicle: other) is 94 % of control; the T/C (dose: 112.0 mg/kg/injection, schedule: Q01DX009 (ip), vehicle: other) is 166 % of control.

As to `O=C(CCl)c1ccc([N+](=O)[O-])o1`, the T/C by setting is: (dose: 1.56 mg/kg/injection, schedule: Q01DX001 (ip), vehicle: Klucel (hydroxypropylcellulose) (HPC)) 98 % of control; (dose: 3.12 mg/kg/injection, schedule: Q01DX001 (ip), vehicle: Klucel (hydroxypropylcellulose) (HPC)) 95 % of control; (dose: 6.25 mg/kg/injection, schedule: Q01DX001 (ip), vehicle: Klucel (hydroxypropylcellulose) (HPC)) 96 % of control.

For the compound `C=C(C)C1(C)C(=O)NC(=S)NC1=O`, the T/C runs as follows: (dose: 75.0 mg/kg/injection, schedule: Q01DX001 (ip), vehicle: saline) 108 % of control; under setting [1], 100 % of control; (dose: 300.0 mg/kg/injection, schedule: Q01DX001 (ip), vehicle: saline) 107 % of control.

The values are drawn from PubChem BioAssay AID248 (DTP/NCI, 2004).
